From patent US8058243B2, “Method for treating a brain cancer with ifenprodil” (HSC Research and Development Limited Partnership, priority 2006, dated 2011)
Where a name gives a salt, the structure may show the parent alone. Read-outs that look alike come from different tables or passages of the source.

Test system: murine neural precursor cells (neurosphere cultures)
Assay: HTS of LOPAC library against secondary neurosphere cultures, MTT proliferation assay at 3 μM, day 7 (z score, P value)
Assay type: cell-based, mouse
[1] = LOPAC library screen, 3 μM, MTT, neurosphere cultures
[2] = LOPAC primary screen, neurosphere MTT proliferation, 3 μM, day 7
[3] = yes/no: significantly inhibited neurosphere proliferation (P<0.01) in primary screen
[4] = primary LOPAC screen, 3 μM, MTT, neurosphere proliferation
[5] = yes/no: significantly inhibited neurosphere proliferation in the primary screen
[6] = LOPAC library screen, 3 μM, MTT, secondary neurosphere cultures, day 7
[7] = LOPAC library screen at 3 μM, secondary neurosphere cultures, MTT
[8] = yes/no: significantly inhibited neurosphere proliferation (P<0.01) in the primary screen
[9] = yes = significantly inhibited neurosphere proliferation (P<0.01) in the primary screen
[10] = yes/no: significantly inhibited neurosphere proliferation in primary screen
[11] = LOPAC screen, neurosphere MTT proliferation, 3 μM, day 7

Compound: CN1[C@@H](CC(=O)c2ccccc2)CCC[C@H]1C[C@H](O)c1ccccc1 [alpha-Lobeline hydrochloride]
- Z Score [1]: 0.5499
- Z score [2]: 0.550
- Activity [3]: no

Compound: Cl.NC(N)=NCCNS(=O)(=O)c1cccc2cnccc12 [HA-1004 hydrochloride]
- Z Score: 0.3161
- Z score [2]: 0.316
- Activity [3]: no

Compound: CN[C@H](CC(C)C)C(=O)N[C@H]1C(=O)N[C@@H](CC(N)=O)C(=O)N[C@H]2C(=O)N[C@H]3C(=O)N[C@H](C(=O)N[C@H](C(=O)O)c4cc(O)cc(O)c4-c4cc3ccc4O)[C@H](O)c3ccc(c(Cl)c3)Oc3cc2cc(c3O[C@@H]2O[C@H](CO)[C@@H](O)[C@H](O)[C@H]2O[C@H]2C[C@](C)(N)[C@H](O)[C@H](C)O2)Oc2ccc(cc2Cl)[C@H]1O.Cl
- Z Score [1]: −0.06352
- Z score [4]: −0.064
- Activity [5]: no

Compound: O=C(O)C1=CCNCC1 [Isoguvacine hydrochloride]
- Z Score [6]: −2.22
- Z score [2]: −2.220
- Activity [3]: no

Compound: O=C(O)CN(CCN(CC(=O)O)CC(=O)O)CCN(CC(=O)O)CC(=O)O [Diethylenetriaminepentaacetic acid]
- Z Score [7]: −0.4576
- Z score [2]: −0.458
- Activity [8]: no

Compound: N=C(N)NCCCCN.O=S(=O)(O)O [Agmatine sulfate]
- Z Score [1]: 0.5881
- Z score [2]: 0.588
- Activity [9]: no

Compound: COCCCC/C(=N\OCCN)c1ccc(C(F)(F)F)cc1 [Fluvoxamine maleate]
- Activity: no
- Z Score [1]: 0.1323
- Z score [2]: 0.132

Compound: Cl.Cl.Cl.Cl.NCCCNCCCCNCCCN [Spermine tetrahydrochloride]
- Activity: no
- Z Score: 0.3942
- Z score: 0.394

Compound: O=C(O)C1CCCNC1 (racemic) [(±)-Nipecotic acid]
- Z score: −0.722

Compound: Cc1cccc(C)c1N=C1NCCCS1 [Xylazine hydrochloride]
- Z Score: 0.3755
- Z score [4]: 0.375
- Activity [5]: no

Compound: CC(=O)Nc1nnc(S(N)(=O)=O)s1 [Acetazolamide]
- Z Score [1]: 1.111
- Z score [2]: 1.111
- Activity [9]: no

Compound: O.c1cnc2c(c1)ccc1cccnc12 [1,10-Phenanthroline monohydrate]
- Z Score: −0.8855
- Z score [2]: −0.886
- Activity [10]: no

Compound: C[N+](C)(C)CCCCCCCCCC[N+](C)(C)C.[Br-].[Br-] [Decamethonium dibromide]
- Z Score: −1.572
- Z score [2]: −1.572
- Activity [8]: no

Compound: CC(=O)c1c(O)c(C)c(O)c(Cc2c(O)c3c(c(C(=O)/C=C/c4ccccc4)c2O)OC(C)(C)C=C3)c1O [Rottlerin]
- Z Score: 0.3042
- Z score [2]: 0.304
- Activity [10]: no

Compound: C#CCN1C(C)=C(C(=O)OC)C(c2cccc([N+](=O)[O-])c2)C(C(=O)OCC)=C1C (stereo not drawn) [MRS 1845]
- Activity: no
- Z Score: −0.006196
- Z score [2]: −0.006

Compound: O=C1CN(/N=C/c2ccc(-c3ccc([N+](=O)[O-])cc3)o2)C(O)=N1 [Dantrolene sodium]
- Activity: no
- Z Score [1]: 0.7985
- Z score [11]: 0.798

Compound: O=C(Nc1ccccc1)c1cc([N+](=O)[O-])ccc1Cl [GW9662]
- Z Score: 1.475
- Z score [2]: 1.475
- Activity [9]: no

Compound: R-(−)-Fluoxetine hydrochloride
- Activity: no
- Z Score [7]: −0.1281

Compound: Cc1cccc(C)c1OCC(C)N.Cl (stereo not drawn) [Mexiletene hydrochloride]
- Z Score: −1.259
- Z score [2]: −1.259
- Activity [9]: no

Compound: CNC(=O)c1cc2c(cn1)[nH]c1ccccc12 [N-Methyl-beta-carboline-3-carboxamide]
- Z Score (168 h, 3 µM): 0.6988
- Z score (168 h, 3 µM): 0.699
- Activity [3]: no

Compound: CCN(CC)CCOC(=O)c1cc(Cl)c(N)cc1OC.Cl [SDZ-205,557 hydrochloride]
- Z Score: −2.681
- Z score [2]: −2.681
- Activity [8]: yes

Compound: CN(C)CCC(c1ccc(Br)cc1)c1ccccn1.O=C(O)/C=C\C(=O)O (stereo not drawn) [(B1)-Brompheniramine maleate]
- Z Score: −3.53

Compound: O=C(O)c1cc2cc(F)ccc2[nH]1 [5-Fluoroindole-2-carboxylic acid]
- Z Score: −0.007549
- Z score: −0.008

Compound: O=C1OC(=O)[C@H]2[C@@H]1[C@@H]1CC[C@H]2O1 [Norcantharidin]
- Z Score: −1.251
- Z score [2]: −1.251
- Activity [9]: no

Compound: O=S(=O)(c1cccc2cnccc12)N1CCNCC1 [HA-100]
- Z Score: −0.6892
- Z score [2]: −0.689
- Activity [8]: no

Compound: CCN(CC)CCCC(C)Nc1c2ccc(Cl)cc2nc2ccc(OC)cc12 (stereo not drawn) [Quinacrine dihydrochloride]
- Activity: yes
- Z Score [6]: −9.712
- Z score [2]: −9.712

Compound: COc1cc(CC(=O)O)ccc1O [4-Hydroxy-3-methoxyphenylacetic acid]
- Z Score: −0.5673
- Z score [2]: −0.567
- Activity [3]: no

Compound: Br.C=CCN1CCc2c(cc(O)c(O)c2Br)[C@@H](c2ccccc2)C1 [R(+)-6-Bromo-APB hydrobromide]
- Z Score: 1.532
- Z score [11]: 1.532
- Activity [3]: no

Compound: COc1cccc(C(=O)NCCN2CCN(c3ccc(Cl)cc3)CC2)c1 [N-(2-[4-(4-Chlorophenyl)piperazin-1-yl]ethyl)-3-methoxybenzamide]
- Z Score [1]: 0.3828
- Z score [2]: 0.383
- Activity [8]: no

Compound: CCCCCCCC/C=C\CCCCCCCC(=O)NCCc1ccc(O)c(O)c1 [N-Oleoyldopamine]
- Z Score (168 h, 3 µM): 0.4633
- Z score (168 h, 3 µM): 0.463
- Activity [10]: no

Compound: Cc1cc(O)c2c(c1)C(=O)c1cc(O)cc(O)c1C2=O [Emodin]
- Z Score (168 h, 3 µM): −0.4835
- Z score (168 h, 3 µM): −0.483
- Activity [3]: no

Compound: NC12CC3CC(CC(C3)C1)C2 [Amantadine hydrochloride]
- Z Score [7]: −0.6531
- Z score [4]: −0.653
- Activity [5]: no

Compound: R(−)-N6-(2-Phenylisopropyl)adenosine
- Z Score [6]: −2.023
- Z score [2]: −2.023
- Activity [10]: no

Compound: NS(=O)(=O)c1cc2c(cc1Cl)NCNS2(=O)=O [Hydrochlorothiazide]
- Z Score [7]: −0.212
- Z score [2]: −0.212
- Activity [3]: no

Compound: (−)-Perillic acid
- Z Score: −1.321

Compound: NCCCS(=O)(=O)O.[Na] [3-Amino-1-propanesulfonic acid sodium]
- Z Score [6]: −6.691
- Z score [2]: −6.691
- Activity [8]: yes

Compound: CC[C@H](NC(=O)c1c(C)c(-c2ccccc2)nc2ccccc12)c1ccccc1 [SB 222200]
- Z Score: −1.695
- Z score [4]: −1.695
- Activity [5]: no

Compound: OC[C@H]1O[C@@H](n2cnc3c(NCCc4ccccc4)ncnc32)[C@H](O)[C@@H]1O [N6-2-Phenylethyladenosine]
- Z Score [1]: 0.5312
- Z score [2]: 0.531
- Activity [10]: no

Compound: COc1ccc2[nH]c(I)c(CCNC(C)=O)c2c1 [2-Iodomelatonin]
- Z Score: −0.1348
- Z score [2]: −0.135
- Activity [3]: no

Compound: Cl.FC(F)(F)c1cc(CO[C@H]2CCCN[C@H]2c2ccccc2)cc(C(F)(F)F)c1 [L-733,060 hydrochloride]
- Z Score: −1.465
- Z score [2]: −1.465
- Activity [9]: no

Compound: N[C@@H](CCCC(=O)O)C(=O)O [L-2-aminoadipic acid]
- Z Score (168 h, 3 µM): −2.334
- Z score (168 h, 3 µM): −2.334
- Activity [8]: yes

Compound: Cl.O=c1cc(N2CCOCC2)oc2c(-c3ccccc3)cccc12 [LY-294,002 hydrochloride]
- Z Score: −1.217
- Z score [2]: −1.217
- Activity [3]: no

Compound: O=C(c1ccc(OCCN2CCCCC2)cc1)c1c(-c2ccc(O)cc2)sc2cc(O)ccc12 [Raloxifene hydrochloride]
- Z Score [6]: −9.222
- Z score [2]: −9.222
- Activity [9]: yes

Compound: COc1ccccc1N1CCN(CCN(C(=O)C2CCCCC2)c2ccccn2)CC1.O=C(O)/C=C\C(=O)O [WAY-100635 maleate]
- Z Score: −0.4965
- Z score [4]: −0.497
- Activity [5]: no

Compound: NCC(CC(=O)O)c1ccc(Cl)cc1 (racemic) [(±)-Baclofen]
- Z score [11]: −1.069
- Activity [3]: no

Compound: CCC(=O)N1CCN(C(=O)c2ccccc2)CC1 [DM 235]
- Z Score: −2.019
- Z score [11]: −2.019
- Activity [3]: no

Compound: C#C[C@]1(O)CC[C@H]2[C@@H]3CCC4=Cc5oncc5C[C@]4(C)[C@H]3CC[C@@]21C [Danazol]
- Z Score (LOPAC library screen at 3 μM, MTT, secondary neurosphere cultures, screened in singlets): 2.152
- Z score [11]: 2.152
- Activity [3]: no

Compound: CC(C)c1cccc(C(C)C)c1O [Propofol]
- Activity: no
- Z Score: 0.3768
- Z score: 0.377

Compound: R(−)-Me5
- Z Score: −1.414
- Z score [2]: −1.414
- Activity [9]: no

Compound: CC(C)Cc1ccc([C@H](C)C(=O)O)cc1 [S(+)-Ibuprofen]
- Z Score [7]: −0.7335
- Z score [2]: −0.733
- Activity [3]: no

Compound: CNC(=O)Oc1ccc2c(c1)[C@]1(C)CCN(C)[C@@H]1N2C [(−)-Physostigmine]
- Z Score: −0.2178
- Z score [2]: −0.218
- Activity [3]: no

Compound: C#C[C@]1(O)CC[C@H]2[C@@H]3CCC4=Cc5nc6nc7ccccc7n6cc5C[C@]4(C)[C@H]3CC[C@@]21C [WIN 62,577]
- Z Score: 2.351
- Z score [4]: 2.351
- Activity [5]: no

Compound: Cc1cc(C)c(NC(=O)C[C@H](CC(=O)O)c2cccc3ccccc23)c(C(=O)N2CCC3(CCCC3)CC2)c1 [CR 2945]
- Z Score (168 h, 3 µM): 0.5451
- Z score (168 h, 3 µM): 0.545
- Activity [3]: no

Compound: Cc1ccccc1/C=C/C1=NCCN1 [Metrazoline oxalate]
- Z Score (168 h, 3 µM): 0.1073
- Z score (168 h, 3 µM): 0.107
- Activity [9]: no
